Values quoted from earlier work, collected in patent US11945788B2, “Process for preparing pitolisant hydrochloride and solid-state forms thereof” (Nuray Chemicals Private Limited, priority 2021, dated 2024).

solubility in cyclohexane (solvent: cyclohexane): practically insoluble
solubility in ethanol (solvent: ethanol): soluble
solubility in methylene chloride (solvent: methylene chloride): soluble
solubility in water (solvent: water): soluble
Compound: Cl.Clc1ccc(CCCOCCCN2CCCCC2)cc1 [Pitolisant hydrochloride, 1-{3-[3-(4-chlorophenyl)propoxy]propyl}piperidine hydrochloride]
